Laboratory results reported in ChEMBL document CHEMBL5042529, “One-Pot Enzymatic Synthesis and Biological Evaluation of Ganglioside GM3 Derivatives as Potential Cancer Immunotherapeutics” (J Med Chem, 2022).
Active and inactive are the calls of the source. The rule behind the calls is not given here.

Tests used:
[1] = Cytotoxicity against human HeLa cells measured after 24 hrs by MTT assay; format: toxicity, cell-based
[2] = Cytotoxicity against rat PC-12 cells measured after 24 hrs by MTT assay; format: toxicity, cell-based
[3] = Cytotoxicity against mouse Neuro2a cells measured after 24 hrs by MTT assay; format: toxicity, cell-based, N2a
[4] = Cytotoxicity against CHO cells measured after 24 hrs by MTT assay; format: toxicity, cell-based, Cricetulus griseus; settings: Chinese hamster
[5] = Cytotoxicity against human A-431 cells measured after 24 hrs by MTT assay; format: toxicity, cell-based
[6] = system: A-431; assay: Inhibition of cell invasion in human A-431 cells assessed as inhibition rate at 50 uM incubated for 24 hrs by crystal violet staining based transwell assay; format: functional
[7] = system: A-431; assay: Antimigratory activity in human A-431 cells assessed as inhibition of scratch at 50 uM measured after 24 hrs by Wound healing assay; format: functional
[8] = system: Mus musculus; assay: Effect on IL-2 expression in C57BL/6 mouse transfected with mouse B16-Luc cells assessed as serum IgG level at 5 mg/kg, ip qd treated for 7 days by ELISA; format: functional, organism-based; settings: time 7.0 day
[9] = system: Mus musculus; assay: Effect on IL-2 expression in C57BL/6 mouse transfected with mouse B16-Luc cells assessed as serum IL-2 level at 5 mg/kg, ip qd treated for 7 days by ELISA; format: functional, organism-based; settings: time 7.0 day
[10] = system: Mus musculus; assay: Effect on IL-2 expression in C57BL/6 mouse transfected with mouse B16-Luc cells assessed as serum […] level at 5 mg/kg, ip qd treated for 7 days by ELISA; format: functional, organism-based; settings: time 7.0 day

| Compound | IC50 at 24 h [1] [µM] | IC50 at 24 h [2] [µM] | IC50 at 24 h [3] [µM] | IC50 at 24 h [4] [µM] | IC50 at 24 h [5] [µM] | inhibition at 50 µM [6] [%] | Activity [7] | Activity [8] | Activity [9] | Activity [10] |
| --- | --- | --- | --- | --- | --- | --- | --- | --- | --- | --- |
| CCCCCCCCCCCCC/C=C/[C@@H](O)[C@H](CO[C@@H]1O[C@H](CO)[C@@H](O[C@@H]2O[C@H](CO)[C@H](O)[C@H](O[C@]3(C(=O)O)C[C@H](O)[C@@H](NC(=O)c4cc(F)cc(F)c4)[C@H]([C@H](O)[C@H](O)CO)O3)[C@H]2O)[C@H](O)[C@H]1O)NC(=O)CCCCCCCCCCCCCCCCC | > 200 | > 200 | > 200 | > 200 | > 200 | – | – | – | – | – |
| CCCCCCCCCCCCC/C=C/[C@@H](O)[C@H](CO[C@@H]1O[C@H](CO)[C@@H](O[C@@H]2O[C@H](CO)[C@H](O)[C@H](O[C@]3(C(=O)O)C[C@H](O)[C@@H](NC(=O)c4cccc(F)c4)[C@H]([C@H](O)[C@H](O)CO)O3)[C@H]2O)[C@H](O)[C@H]1O)NC(=O)CCCCCCCCCCCCCCCCC | > 200 | > 200 | > 200 | > 200 | > 200 | 27.8 | Active | – | – | – |
| CCCCCCCCCCCCC/C=C/[C@@H](O)[C@H](CO[C@@H]1O[C@H](CO)[C@@H](O[C@@H]2O[C@H](CO)[C@H](O)[C@H](O[C@]3(C(=O)O)C[C@H](O)[C@@H](NC(C)=O)[C@H]([C@H](O)[C@H](O)CO)O3)[C@H]2O)[C@H](O)[C@H]1O)NC(=O)CCCCCCCCCCCCCCCCC | – | – | – | – | – | – | – | inactive | inactive | inactive |
| CCCCCCCCCCCCC/C=C/[C@@H](O)[C@H](CO[C@@H]1O[C@H](CO)[C@@H](O[C@@H]2O[C@H](CO)[C@H](O)[C@H](O[C@]3(C(=O)O)C[C@H](O)[C@@H](NC(=O)c4cc(C)cc(C)c4)[C@H]([C@H](O)[C@H](O)CO)O3)[C@H]2O)[C@H](O)[C@H]1O)NC(=O)CCCCCCCCCCCCCCCCC | > 200 | > 200 | > 200 | > 200 | > 200 | – | – | – | – | – |
| CCCCCCCCCCCCC/C=C/[C@@H](O)[C@H](CO[C@@H]1O[C@H](CO)[C@@H](O[C@@H]2O[C@H](CO)[C@H](O)[C@H](O[C@]3(C(=O)O)C[C@H](O)[C@@H](NC(=O)Cc4ccc(C)cc4)[C@H]([C@H](O)[C@H](O)CO)O3)[C@H]2O)[C@H](O)[C@H]1O)NC(=O)CCCCCCCCCCCCCCCCC | > 200 | > 200 | > 200 | > 200 | > 200 | – | – | – | – | – |
| CCCCCCCCCCCCC/C=C/[C@@H](O)[C@H](CO[C@@H]1O[C@H](CO)[C@@H](O[C@@H]2O[C@H](CO)[C@H](O)[C@H](O[C@]3(C(=O)O)C[C@H](O)[C@@H](NC(=O)CC)[C@H]([C@H](O)[C@H](O)CO)O3)[C@H]2O)[C@H](O)[C@H]1O)NC(=O)CCCCCCCCCCCCCCCCC | > 200 | > 200 | > 200 | > 200 | > 200 | – | – | – | – | – |
| CCCCCCCCCCCCC/C=C/[C@@H](O)[C@H](CO[C@@H]1O[C@H](CO)[C@@H](O[C@@H]2O[C@H](CO)[C@H](O)[C@H](O[C@]3(C(=O)O)C[C@H](O)[C@@H](NC(C)=O)[C@H]([C@H](O)[C@H](O)CO)O3)[C@H]2O)[C@H](O)[C@H]1O)NC(=O)CCCCCCCCCC | > 200 | > 200 | > 200 | > 200 | > 200 | – | – | – | – | – |
| CCCCCCCCCCCCC/C=C/[C@@H](O)[C@H](CO[C@@H]1O[C@H](CO)[C@@H](O[C@@H]2O[C@H](CO)[C@H](O)[C@H](O[C@]3(C(=O)O)C[C@H](O)[C@@H](NC(=O)c4ccncc4)[C@H]([C@H](O)[C@H](O)CO)O3)[C@H]2O)[C@H](O)[C@H]1O)NC(=O)CCCCCCCCCCCCCCCCC | > 200 | > 200 | > 200 | > 200 | > 200 | 26.2 | Active | – | – | – |
| CCCCCCCCCCCCC/C=C/[C@@H](O)[C@H](CO[C@@H]1O[C@H](CO)[C@@H](O[C@@H]2O[C@H](CO)[C@H](O)[C@H](O[C@]3(C(=O)O)C[C@H](O)[C@@H](NC(=O)c4ccc(I)cc4)[C@H]([C@H](O)[C@H](O)CO)O3)[C@H]2O)[C@H](O)[C@H]1O)NC(=O)CCCCCCCCCCCCCCCCC | > 200 | > 200 | > 200 | > 200 | > 200 | – | – | – | – | – |
| CCCCCCCCCCCCC/C=C/[C@@H](O)[C@H](CO[C@@H]1O[C@H](CO)[C@@H](O[C@@H]2O[C@H](CO)[C@H](O)[C@H](O[C@]3(C(=O)O)C[C@H](O)[C@@H](NC(=O)c4ccc(F)cc4)[C@H]([C@H](O)[C@H](O)CO)O3)[C@H]2O)[C@H](O)[C@H]1O)NC(=O)CCCCCCCCCCCCCCCCC | > 200 | > 200 | > 200 | > 200 | > 200 | – | – | – | – | – |
| CCCCCCCCCCCCC/C=C/[C@@H](O)[C@H](CO[C@@H]1O[C@H](CO)[C@@H](O[C@@H]2O[C@H](CO)[C@H](O)[C@H](O[C@]3(C(=O)O)C[C@H](O)[C@@H](NC(=O)c4cccc([N+](=O)[O-])c4)[C@H]([C@H](O)[C@H](O)CO)O3)[C@H]2O)[C@H](O)[C@H]1O)NC(=O)CCCCCCCCCCCCCCCCC | > 200 | > 200 | > 200 | > 200 | > 200 | – | – | – | – | – |
| CCCCCCCCCCCCC/C=C/[C@@H](O)[C@H](CO[C@@H]1O[C@H](CO)[C@@H](O[C@@H]2O[C@H](CO)[C@H](O)[C@H](O[C@]3(C(=O)O)C[C@H](O)[C@@H](NC(=O)c4cccc(Br)c4)[C@H]([C@H](O)[C@H](O)CO)O3)[C@H]2O)[C@H](O)[C@H]1O)NC(=O)CCCCCCCCCCCCCCCCC | > 200 | > 200 | > 200 | > 200 | > 200 | – | – | – | – | – |
| CCCCCCCCCCCCC/C=C/[C@@H](O)[C@H](CO[C@@H]1O[C@H](CO)[C@@H](O[C@@H]2O[C@H](CO)[C@H](O)[C@H](O[C@]3(C(=O)O)C[C@H](O)[C@@H](NC(=O)c4ccccc4)[C@H]([C@H](O)[C@H](O)CO)O3)[C@H]2O)[C@H](O)[C@H]1O)NC(=O)CCCCCCCCCCCCCCCCC | > 200 | > 200 | > 200 | > 200 | > 200 | – | – | – | – | – |
| CCCCCCCCCCCCC/C=C/[C@@H](O)[C@H](CO[C@@H]1O[C@H](CO)[C@@H](O[C@@H]2O[C@H](CO)[C@H](O)[C@H](O[C@]3(C(=O)O)C[C@H](O)[C@@H](NC(=O)c4ccc(C=O)cc4)[C@H]([C@H](O)[C@H](O)CO)O3)[C@H]2O)[C@H](O)[C@H]1O)NC(=O)CCCCCCCCCCCCCCCCC | > 200 | > 200 | > 200 | > 200 | > 200 | – | Active | – | – | – |
